In PubChem BioAssay AID485301 (The Scripps Research Institute Molecular Screening Center, 2010):
Calls of active or inactive are those of the source.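 How the source made its calls: active means IC50 of 10 µM or less against the helicase of at least one HCV strain tested; inactive means the rest.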

Key:
Experiment in all cases: NS3 helicase inhibition across HCV genotypes – biochemical, real-time fluorescence, genotypes 1b J4, 1b con1, 2a JFH1, selectivity assay, late-stage follow-up (AID 485301)
Conditions in all cases: NS3 helicase unwinding, Cy5 molecular beacon fluorescence
NS3h 1b (J4) = target: NS3h 1b (J4)
NS3h 1b (con1) = target: NS3h 1b (con1)
NS3h 2a (JFH1) = target: NS3h 2a (JFH1)

IC50 (NS3h 1b (J4))	IC50 (NS3h 1b (con1))	IC50 (NS3h 2a (JFH1))	Structure (SMILES)
> 500 µM (inactive)	> 500 µM (inactive)	> 500 µM (inactive)	COc1cc(C2C(C(=O)c3ccc(C)o3)=C(O)C(=O)N2c2cc(C)on2)ccc1OCc1ccccc1 (stereo not drawn)
> 500 µM (inactive)	> 500 µM (inactive)	> 500 µM (inactive)	CCCCCOc1ccc(C2C(C(=O)c3ccc(C)o3)=C(O)C(=O)N2c2cc(C)on2)cc1 (stereo not drawn)
> 500 µM (inactive)	> 500 µM (inactive)	> 500 µM (inactive)	COc1ccc(C=NNC(=O)c2cc(O)c(O)c(O)c2)cc1COc1ccc(C(=O)OCC(C)C)cc1
> 500 µM (inactive)	> 500 µM (inactive)		COc1ccc(/C=N/NC(=O)c2cc(O)c(O)c(O)c2)cc1COc1ccc(C(=O)OCC(C)C)cc1
> 500 µM (inactive)	> 500 µM (inactive)	> 500 µM (inactive)	Cc1ccc(C(=O)C2=C(O)C(=O)N(Cc3ccco3)C2c2cccc(Cl)c2)o1 (stereo not drawn)
> 500 µM (inactive)	> 500 µM (inactive)	> 500 µM (inactive)	Cc1cc(N2C(=O)C(O)=C(C(=O)c3ccc(C)o3)C2c2ccc(OCc3ccccc3)cc2)no1 (stereo not drawn)
> 500 µM (inactive)	> 500 µM (inactive)	> 500 µM (inactive)	COc1cccc(-n2c(SCc3cc(=O)oc4cc(O)c(O)cc34)nc3ccccc3c2=O)c1
> 500 µM (inactive)	> 500 µM (inactive)	> 500 µM (inactive)	CCOc1cccc(C2C(C(=O)c3ccc(C)o3)=C(O)C(=O)N2Cc2ccccc2)c1 (stereo not drawn)
